Experimental data taken from US9233954B2, “Organic amine salts of Azilsartan, preparation method and use thereof” (Jiangsu Hansoh Pharmaceutical Co., Ltd., priority 2011, dated 2016).

Columns and labels:
[1] = tested on: hypertension rats induced by Angiotensin II; assay: Effect on the hypertension rats induced by angiotensin II (DSI telemetry); assay type: in vivo, Sprague-Dawley rats; conditions: for The average MBP over 23 hours before administration: baseline before single intragastric dose; for The average MBP over 23 hours before administration / Average blood pressure 1 hr after administration / Average blood pressure 2 hr after administration / Average blood pressure 3 hr before administration / Average blood pressure 7 hr after administration / Average blood pressure 13 hr after administration / Average blood pressure 13 hr before administration / Average blood pressure 18 hr after administration / Average blood pressure 23 hr after administration / Average blood pressure 23 hr before administration / The average MBP over 23 hours after administration: Mean±S.E., N=8; for Average ratio of reduction of the average blood pressure: average value after administration over 23 hours
Description: The Effect on the Hypertension Rats Induced by Angiotensin II
The dosage of angiotensin II was determined according to literature (Harrison-Bernard L M, Zhuo J, Kobori H, Ohishi M, Navar L G. Intrarenal A T (1) receptor and ACE binding in ANG II-induced hypertensive rats. Am. J. Physiol. Renal Physiol. 2002 January; 282(1):F19-25; Diz D I, Baer P G, Nasjletti A. Angiotensin II-induced hypertension in the rat. Effects on the plasma concentration, renal excretion, and tissue release of prostaglandins. J. Clin. Invest. 1983 August; 72(2):466-77.). Angiotensin II was precisely weighed and diluted with sterile saline up to a concentration of 14.4 mg/mL, then mixed slightly until clear and stored at −20° C. in the dark.
HS-10149 suspension: the compounds were precisely weighed and diluted with 2% of Ceolus suspension in a gradient of 0.20 mg/ml, 0.06 mg/ml, 0.02 mg/ml, then the suspension was stirred until dissolution and stored at 4° C. in the dark. The sample was warmed to room temperature in advance before administration and mixed to uniform.
The animals with required weight (female: 230-250 g, male: 200-220 g) were selected after adaptation for one week. The male rats were subjected to combined anesthesia of ketamine (44 mg/kg, im.) and 2% pentobarbital sodium solution (30 mg/kg, ip), and the female rates were narcotized with 2% pentobarbital sodium solution (40 mg/kg, ip). The implants were implanted on day 0 and the blood pressure was continuously monitored for 24 hours from the 7th day after implantation of a micro osmotic pump. The animals with mean systolic blood pressure (MSBP) up to 140 mmHg over 24 hours were considered as standard screening animals. The qualified animals were used in the test and the unqualified animals were excluded.
The qualified animals were divided into groups according to their MSBP over 24 hours, 8 animals for each group with half female and half male. 8 animals for each group met the requirement of statistical tests and the requirement of pharmacodynamics guiding principles.
After grouping, the solvent control, low, middle and high dosage animal groups were intragastrically administered with 2% Ceolus, 0.1 mg/kg, 0.3 mg/kg and 1.0 mg/kg of HS-10149, respectively. The administration time was 10:00 and 10:30 a.m. and the administration volume was 5 mL/kg.
(4) Experimental Process Healthy animals were implanted with implants at day 0 and a micro osmotic pump was implanted subcutaneously at day 8. The blood pressure was monitored for 24 hours from the 15th day and the animals with qualified blood pressure were selected to test. Positive drug or test sample was administered once at 10:00 a.m. on the 16th day and the blood pressure was monitored after administration for 24 hours. At the end of the test, the animals were sacrificed by excessive carbon dioxide. 5. Handling and Analysis of Data
The data were recorded every 5 s automatically by the DSI remote sensing pressure measuring device. The mean value calculated within an hour as unit by the software was considered as initial data.

[2] = rat, in vivo, po
Description: Drug Metabolism Test of Sprague Dawley (SD) Rats after Administration
Twelve SD rats that weighed 200-250 g were randomly divided into two groups with each group having 6 rats, half male and half female. […] 0.5 ml blood were collected from orbit before administration and at 0.5, 1.0, 2.0, 3.0, 4.0, 5.0, 7.0, 10, 24 and 48 h after administration. Plasma concentration of Azilsartan (TAK-536), M1 (product of decarboxylation of Azilsartan) and M2 (product of O-dealkylation) was measured.

CCOc1nc2cccc(C(=O)O)c2n1Cc1ccc(-c2ccccc2-c2noc(=O)[nH]2)cc1.CCOc1nc2cccc(C(=O)[O-])c2n1Cc1ccc(-c2ccccc2-c2noc(=O)[nH]2)cc1.C[N+](C)(C)CCO [Example 2]
The average MBP over 23 hours before administration ([1]; 0.1 mg/kg group): 146 ± 5 mmHg
Average blood pressure 1 hr after administration ([1]; 0.1 mg/kg group): 128 ± 8
Average blood pressure 2 hr after administration ([1]; 0.1 mg/kg group): 102 ± 9
Average blood pressure 3 hr before administration ([1]; 0.1 mg/kg group): 128 ± 9
Average blood pressure 7 hr after administration ([1]; 0.1 mg/kg group): 91 ± 5
Average blood pressure 13 hr after administration ([1]; 0.1 mg/kg group): 110 ± 3
Average blood pressure 13 hr before administration ([1]; 0.1 mg/kg group): 144 ± 7
Average blood pressure 18 hr after administration ([1]; 0.1 mg/kg group): 114 ± 3
Average blood pressure 23 hr after administration ([1]; 0.1 mg/kg group): 109 ± 5
Average blood pressure 23 hr before administration ([1]; 0.1 mg/kg group): 142 ± 8
The average MBP over 23 hours after administration ([1]; 0.1 mg/kg single intragastric dose): 110 ± 3 mmHg
Antihypertension effect in the hypertension rat models induced by angiotensin II ([1]; 0.1 mg/kg to 1.0 mg/kg): significant antihypertension effect
Average ratio of reduction of the average blood pressure ([1]; 0.1 mg/kg): 24.7%
The average MBP over 23 hours before administration ([1]; 0.3 mg/kg group): 145 ± 5 mmHg
Average blood pressure 1 hr after administration ([1]; 0.3 mg/kg group): 119 ± 11
Average blood pressure 2 hr after administration ([1]; 0.3 mg/kg group): 83 ± 6
Average blood pressure 3 hr before administration ([1]; 0.3 mg/kg group): 124 ± 10
Average blood pressure 7 hr after administration ([1]; 0.3 mg/kg group): 77 ± 4
Average blood pressure 13 hr after administration ([1]; 0.3 mg/kg group): 91 ± 8
Average blood pressure 13 hr before administration ([1]; 0.3 mg/kg group): 150 ± 6
Average blood pressure 18 hr after administration ([1]; 0.3 mg/kg group): 108 ± 10
Average blood pressure 23 hr after administration ([1]; 0.3 mg/kg group): 93 ± 3
Average blood pressure 23 hr before administration ([1]; 0.3 mg/kg group): 147 ± 8
The average MBP over 23 hours after administration ([1]; 0.3 mg/kg single intragastric dose): 88 ± 7 mmHg
Average ratio of reduction of the average blood pressure ([1]; 0.3 mg/kg): 39.3%
The average MBP over 23 hours before administration ([1]; 1.0 mg/kg group): 147 ± 5 mmHg
Average blood pressure 1 hr after administration ([1]; 1.0 mg/kg group): 118 ± 6
Average blood pressure 2 hr after administration ([1]; 1.0 mg/kg group): 85 ± 5
Average blood pressure 3 hr before administration ([1]; 1.0 mg/kg group): 129 ± 9
Average blood pressure 7 hr after administration ([1]; 1.0 mg/kg group): 74 ± 4
Average blood pressure 13 hr after administration ([1]; 1.0 mg/kg group): 76 ± 6
Average blood pressure 13 hr before administration ([1]; 1.0 mg/kg group): 149 ± 7
Average blood pressure 18 hr after administration ([1]; 1.0 mg/kg group): 80 ± 5
Average blood pressure 23 hr after administration ([1]; 1.0 mg/kg group): 81 ± 5
Average blood pressure 23 hr before administration ([1]; 1.0 mg/kg group): 146 ± 9
The average MBP over 23 hours after administration ([1]; 1.0 mg/kg single intragastric dose): 81 ± 5 mmHg
Average ratio of reduction of the average blood pressure ([1]; 1.0 mg/kg): 44.9%
Minimum effective dose ([1]; single intragastric administration): 0.1 mg/kg
Duration of the effect after single administration ([1]; single intragastric administration, 0.1-1.0 mg/kg): about 23 hours
Increase of AUC of Azilsartan acid in the plasma [2]: 70%
Increase of Cmax of Azilsartan acid in the plasma [2]: 98%
